Measured values reported in patent US7906709B2, “Methods for breeding glyphosate resistant plants and compositions thereof” (priority 2006, dated 2011).

Legend:
[1] = test system: F1 progeny of R and S lines of California rigid ryegrass; test: Glyphosate sensitivity of F1 progeny (RxS, SxR); assay type: in vivo, Lolium rigidum
Description: Cross-pollination is arranged in the greenhouse between one plant each of the R and S lines which have similar maturity. To prevent pollen contamination from un-wanted ryegrass, the plants are covered with transparent plastic. The likelihood of selfing is less than 3% as discussed in, for example, Thorogood, Perennial Ryegrass (Lolium perenne L.) in M. D. Casler and R. R. Duncan, eds. Turfgrass Biology, Genetics, and Breeding, John Wiley & Sons, Inc., pp. 75-105 (2003). About 500 seeds from both R and S plants are harvested at maturity and kept separately. F1 plants are grown and maintained similarly as previously described. The F1 progeny are evaluated for glyphosate sensitivity when the plants are 5 to 8 cm tall. Glyphosate is sprayed at 0.125×, 0.5×, 0.25×, 1×, 2×, 4×, 6×, and 8× and the spray solutions prepared and delivered as described previously. The response of 10 plants in each of two experiments to glyphosate is recorded 3 and 4 WAT.

[2] = test system: F2 population of rigid ryegrass; test: Glyphosate sensitivity of F2 population (RxS intercross); assay type: in vivo, Lolium rigidum; conditions: of 400 F2 plants
Description: Twenty uniform non-sprayed plants of the F1 progeny (R×S) are grown and pooled to allow intercrossing to generate F2. Seeds are harvested at maturity and grown as described previously. Glyphosate sensitivity is further evaluated in the F2 population. At the tillering stage, as described previously, 400 plants of the F2 population are sprayed with 0.125× glyphosate (the rate used to identify the sensitive parent). The number of sensitive plants (severely injured and dead) is recorded 3 to 4 WAT. The survivors are re-acclimated for another week and re-sprayed with 8× glyphosate (the rate used to identify the resistant parent). The number of survivors is recorded 3 to 4 WAT. […] Expected ratios in the F2 population between sensitive, intermediate, and the resistant are evaluated with the model of one or two genes involved in the inheritance of glyphosate resistance as discussed in, for example, Diggle and Neve in Herbicide Resistance and World Grains, S. B. Powles and D. L. Shaner, eds. CRC Press, Boca Raton, London, New York, Washington, D.C., pp. 61-99 (2001). Chi-square analyses are used to determine the most acceptable ratio for F2 segregation and the inheritance of the glyphosate resistance.

R line of rigid ryegrass = test: Dose response study of plant injury, R line; assay type: in vivo, Lolium rigidum
Description: (§1) A dose response study is conducted on the R and S lines of rigid ryegrass. The rates of glyphosate applied varied from 0.125×, 0.25×, 0.5×, 1×, 2×, 4×, 6×, 8×, 10×, to 12×. The sprayed solutions and application procedures are similar to those described previously. Plants are evaluated for visual injury at 4 WAT. Data (4 WAT) from two experiments with 8 replications of each treatment are analyzed by non-linear regression and fitted to a log-logistic model:
(§2) [formula] where y is predictive of plant injury (% of control), X50=dose required to obtain 50% injury and b is the slope at X50.

S line of rigid ryegrass = test: Dose response study of plant injury, S line; assay type: in vivo, Lolium rigidum; conditions: visual injury 4 WAT, 1× = 1.12 kg ai ha^-1
Description: as §1, §2

Wild-type Agrobacterium = test: Growth in M-9 media with glyphosate, wild-type; assay type: cell-based, Agrobacterium tumefaciens; conditions: 48 hours
Description: The confirmed plasmid is transformed into Agrobacterium tumefaciens by “freeze thaw technique” using liquid nitrogen. The transformed Agrobacterium is grown in LB plated and maintained 28° C. for 72 h. Some colonies are grown in LB broth for 24 h and tested for the inserted EPSPS gene by PCR. The confirmed Agrobacterium is grown in 50 mL LB broth for 24 h. The Agrobacterium is centrifuged at 5000×g for 10 min, and the pellets are diluted with 2 mL 1.0 M CaCl2. At the same time, a wild-type Agrobacterium is also grown and extracted similar to the transformed Agrobacterium. The Agrobacterium solutions (10 μL) are grown in 50 mL media containing 1×M-9 salt media (SIGMA), 20 mM glucose, 2 mM MgSO4, and glyphosate at 0, 0.25, 0.5, 0.75, 1.0, 1.5, and 2 mM.
The growth (indicated by Optical Density 600 nm) is measured after 48 hours.

[3] = test system: F2 population from cross between perennial ryegrass and glyphosate resistant rigid ryegrass; test: Glyphosate sensitivity of F2 hybrid population; assay type: in vivo, Lolium perenne x Lolium rigidum; conditions: 0.5× glyphosate; 3 WAT
Description: The population of F2 is evaluated for glyphosate sensitivity with 0.5× glyphosate. Severely injured and dead plants are recorded 3 weeks after treatment (WAT) and are designated similar to the sensitive (S) parent. The survivors are re-acclimated for further evaluation at 8× glyphosate. The survivors from 8× glyphosate are designated similar to resistant (R) parent. The rest of the population that responded between S and R are identified as intermediate (I).

[4] = test system: resistant (R) clone from F2bc1 hybrid; test: Glyphosate sensitivity of resistant clone from F2bc1; assay type: in vivo, Lolium perenne x Lolium rigidum
Description: The resistant plant from F2 population is backcrossed to the S parent (perennial ryegrass). Procedures for vernalization and pollination are similar to what is described above. Plants of the F1 hybrid from the backcross (F1bc1) are allowed to intercross to generate F2 (F2bc1). The inheritance of glyphosate resistance traits is evaluated in the F2bc1 population. Glyphosate sensitivity is evaluated at 0.25× and 8× glyphosate. Data collection and genetic evaluation are similar to the procedures as described above.
Backcrossing between the resistant plants from F2 to the sensitive parent of perennial ryegrass is designed to re-capture agronomic characteristics of sensitive parents (perennial ryegrass). The level of glyphosate resistance in the F1bc1 population appears to be similar to the previous results in F1 population. Distribution of glyphosate sensitivity level in the F2bc1 population is illustrated in FIG. 5. A sample of the resistant plants from the F2bc1 is evaluated for the level of sensitivity at 0, 1, 2, 4, 6, 8, 10, 12, and 14× glyphosate and data is illustrated in FIG. 6. No injury is observed up to 6× glyphosate, slight injury is observed at 8× and 10×, and severe injury is observed at 12× glyphosate.

`O=C(O)CNCP(=O)(O)O` [glyphosate, N-(phosphonomethyl) glycine] was tested, and the injury ([1]; 2× glyphosate, 4 WAT) was 20-30%, the recovery from injury ([1]; 2× glyphosate, after 5 weeks) was “full recovery” and the “highest glyphosate rate survived” value ([1]; F1 progeny (RxS) and (SxR)) was “up to 2 ×”. The “effect on F1 plants” value ([1]; glyphosate at 4× and higher rates) was “killed”, the “Sensitive plants (died from 0.125× glyphosate), observed” value ([2]; 0.125× glyphosate, 3 to 4 WAT) was 27 plants and the “Intermediate plants (0.125x-8x), observed” value ([2]; between 0.125× and 8× glyphosate) was 352 plants. The “Resistant plants (survived 8× glyphosate), observed” value ([2]; re-sprayed with 8× glyphosate, 3 to 4 WAT) was 21 plants, the survival (R line of rigid ryegrass; R biotype, 8× glyphosate) was “survived” and the “ratio of glyphosate rates between the R and S lines for 50% injury” value (R line of rigid ryegrass; R line versus S line, 4 WAT) was over 100 fold. The “glyphosate rate for 50% injury” value (R line of rigid ryegrass; R line, visual injury 4 WAT, 1× = 1.12 kg ai ha^-1) was 11 ×, the “glyphosate rate for 50% injury” value (S line of rigid ryegrass) was 0.1 × and the “Growth, OD 600 nm” value (Wild-type Agrobacterium; glyphosate 0.25 mM) was 0.236. The “Growth, Percent” value (Wild-type Agrobacterium; glyphosate 0.25 mM) was 37%, the “Growth, OD 600 nm” value (Wild-type Agrobacterium; glyphosate 0.50 mM) was 0.005 and the “Growth, Percent” value (Wild-type Agrobacterium; glyphosate 0.50 mM) was 0.8%. The “Growth, OD 600 nm” value (Wild-type Agrobacterium; glyphosate 0.75 mM) was 0.005, the “Growth, Percent” value (Wild-type Agrobacterium; glyphosate 0.75 mM) was 0.8% and the “Growth, OD 600 nm” value (Wild-type Agrobacterium; glyphosate 1.00 mM) was 0.004. The “Growth, Percent” value (Wild-type Agrobacterium; glyphosate 1.00 mM) was 0.8%, the “Growth, OD 600 nm” value (Wild-type Agrobacterium; glyphosate 1.50 mM) was 0.004 and the “Growth, Percent” value (Wild-type Agrobacterium; glyphosate 1.50 mM) was 0.8%. The “Growth, OD 600 nm” value (Wild-type Agrobacterium; glyphosate 2.00 mM) was 0.004, the “Growth, Percent” value (Wild-type Agrobacterium; glyphosate 2.00 mM) was 0.8% and the “percentage of the sensitive plants in F2” value [3] was 16%. For the same compound, the injury ([4]; 8× and 10× glyphosate) was “slight injury”, the injury ([4]; 12× glyphosate) was “severe injury” and the injury ([4]; up to 6× glyphosate) was “No injury”.
